For 25 compounds, selectivity ratio, Kd and Activity results are on record in ChEMBL document CHEMBL3994566 (Medchemcomm, 2016).

For one data set, the system named is CCR5. In words: Selectivity index, ratio of CC50 for human TZM-bl cells to EC50 for CCR5 in human TZM-bl cells infected with CCR5-tropic HIV-1 Bal assessed as inhibition of viral entry. It is filed as toxicity, cell-based. As to conditions: read-out: Ratio CC50/EC50.
The nature of data set [1]: Binding affinity to HIV1 integrase by surface plasma resonance method. Also noted: species or system Human immunodeficiency virus.
The test system of a further data set is TZM. In words: Cytotoxicity against human TZM-bl cells after 3 days by XTT assay. It is filed as cell-based. As to conditions: 72 h.

For `COc1ccc(C(=O)Nc2ccc(CCC(=O)CCc3ccc(OC(C)=O)c(OC(C)=O)c3)cc2)cc1`, the selectivity ratio in the data set on CCR5 came to 21.
As for `CC(=O)Oc1ccc(/C=C/C(=O)CCc2ccc(NC(=O)c3ccc([N+](=O)[O-])cc3)cc2)cc1OC(C)=O`, the selectivity ratio with CCR5 is 5.
Same read-out and setting: with `CC(=O)Oc1ccc(/C=C/C(=O)CCc2ccc(NC(=O)c3ccc(C)cc3)cc2)cc1OC(C)=O` the figure was 2.
For orientation: Kd means the concentration at which binding is half-saturated. For `O=C(CCc1ccc(NC(=O)C2CCCCC2)cc1)CCc1ccc(O)c(O)c1`, binding in data set [1] was characterised by a dissociation constant (Kd) of 80.9 µM. Further, in the data set with CCR5, the selectivity ratio was 10.
As for `CC(=O)Oc1ccc(/C=C/C(=O)CCc2ccc(NC(=O)C3CCCCC3)cc2)cc1OC(C)=O`, the selectivity ratio in the data set on CCR5 worked out at 5.
Same read-out and setting: with `Cc1nnc(C(C)C)n1[C@@H]1C[C@H]2CC[C@@H](C1)N2CC[C@H](NC(=O)C1CCC(F)(F)CC1)c1ccccc1` [MARAVIROC] the figure was above 1e+06; with `CC(=O)Oc1ccc(CCC(=O)CCc2ccc(NC(=O)C3CCCCC3)cc2)cc1OC(C)=O`, 14.
`O=C(/C=C/c1ccc(O)c(O)c1)CCc1ccc(NC(=O)Cc2cccs2)cc1` gave a Kd in data set [1] of 61.3 µM. Besides, the selectivity ratio in the data set on CCR5 was below 2.
For `COc1ccc(C(=O)Nc2ccc(CCC(=O)/C=C/c3ccc(O)c(O)c3)cc2)cc1`, in that order: 43.2 µM and 7.
Regarding `CC(=O)Oc1ccc(/C=C/C(=O)CCc2ccc(NC(=O)c3ccccc3)cc2)cc1OC(C)=O`, in the data set on CCR5, the selectivity ratio was below 5.
Take `O=C(CCc1ccc(NC(=O)c2ccccc2)cc1)CCc1ccc(O)c(O)c1`: the Kd in data set [1] was determined as 110 µM. In addition, the selectivity ratio in the data set on CCR5 worked out at 26.
Take `Cc1ccc(C(=O)Nc2ccc(CCC(=O)/C=C/c3ccc(O)c(O)c3)cc2)cc1`: the selectivity ratio in the data set on CCR5 was below 1.
Consider `O=C(CCc1ccc(NC(=O)c2ccc([N+](=O)[O-])cc2)cc1)CCc1ccc(O)c(O)c1`, for which the selectivity ratio in the data set on CCR5 is 6.
The same measure, in the same setting: with `CC(=O)Oc1ccc(CCC(=O)CCc2ccc(NC(=O)c3ccc(C)cc3)cc2)cc1OC(C)=O` the figure was 9.
Turning to `O=C(CCc1ccc(NC(=O)Cc2cccs2)cc1)CCc1ccc(O)c(O)c1`, in the data set with CCR5, the selectivity ratio stood at 8.
`O=C(/C=C/c1ccc(O)c(O)c1)CCc1ccc(NC(=O)c2ccccc2)cc1` registered a Kd in data set [1] of 164 µM. Also, the selectivity ratio in the data set with CCR5 was below 1.
In the case of `COc1ccc(C(=O)Nc2ccc(CCC(=O)CCc3ccc(O)c(O)c3)cc2)cc1`, the selectivity ratio with CCR5 was below 5.
Regarding `O=C(/C=C/c1ccc(O)c(O)c1)CCc1ccc(NC(=O)c2ccc([N+](=O)[O-])cc2)cc1`, the selectivity ratio in the data set on CCR5 was below 1.
The same measure, in the same setting: with `COc1ccc(C(=O)Nc2ccc(CCC(=O)/C=C/c3ccc(OC(C)=O)c(OC(C)=O)c3)cc2)cc1` the figure was 12; with `CC(=O)Oc1ccc(CCC(=O)CCc2ccc(NC(=O)c3ccc([N+](=O)[O-])cc3)cc2)cc1OC(C)=O`, 15; with `CC(=O)Oc1ccc(/C=C/C(=O)CCc2ccc(NC(=O)Cc3cccs3)cc2)cc1OC(C)=O`, below 1.
Turning to `CC(=O)Oc1ccc(CCC(=O)CCc2ccc(NC(=O)c3ccccc3)cc2)cc1OC(C)=O`, in data set [1], the affinity, expressed as Kd, was 2.4 µM. Also, the selectivity ratio with CCR5 was 110. In addition, the Activity entry in the data set with TZM is “Non-Toxic”.
The compound `O=C(/C=C/c1ccc(O)c(O)c1)CCc1ccc(NC(=O)C2CCCCC2)cc1` returned a Kd in data set [1] of 89.8 µM. Moreover, in the data set on CCR5, the selectivity ratio is below 3.
In the case of `CC(=O)Oc1ccc(CCC(=O)CCc2ccc(NC(=O)Cc3cccs3)cc2)cc1OC(C)=O`, in the data set on CCR5, the selectivity ratio stood at 17.
Take `Cc1ccc(C(=O)Nc2ccc(CCC(=O)CCc3ccc(O)c(O)c3)cc2)cc1`: the selectivity ratio with CCR5 is 5.
